Here are results for 2 compounds from US20210317077A1, “Crystalline Forms of N1-(1-Cyanocycloproply)-N2-((1S)-1-{4'-[(1R-2,2-Difluoro-1-Hydroxyethyl]Biphenyl-4-YL}-2,2,2-Trifluoroethyl)-4-Fluoro-L-Leucinamide” (Intervet Inc., priority 2018, published 2021).

For series [1] the following is noted: Form A: temperature range where Form B is stable; Form B: process solvent above 50° C., few hours, no Form A seeds.
For series [2] the following is noted: competitive slurry in ethanol/water at 25, 30, 35 and 40° C.; enantiotropically related forms. On the procedure:
Competitive slurry experiments of Forms A and B in ethanol/water at 25° C., 30° C., 35° C. and 40° C. were used to establish the transition temperature of the enantiotropic forms.

How the values of series [3] were obtained: The Form B crystals were added to the SLS and PVP to form a slurry. […] FIG. 9 depicts complimentary in situ process analytical data from Raman spectroscopy (on solute concentration and solid phase composition) and Focused Beam Reflectance Measurement (FBRM characterizing number and dimension of the dispersed particles).

Molecules are shown by their SMILES.

As to `CC(C)(F)C[C@H](N[C@@H](c1ccc(-c2ccc([C@@H](O)C(F)F)cc2)cc1)C(F)(F)F)C(=O)NC1(C#N)CC1` [Form A], the “form conversion during API process and DP processing timeframes” value in series [1] is given as “does not convert to Form B”. In series [2], the “temperature at which the form is the more stable form” value is not below 40 °C. Moreover, the “relative solubility of the forms (Raman solute signal)” value in series [3] (80° C., slurry in aqueous SLS and PVP) is recorded as “lower solubility”.

In the case of `CC(C)(F)C[C@H](N[C@@H](c1ccc(-c2ccc([C@@H](O)C(F)F)cc2)cc1)C(F)(F)F)C(=O)NC1(C#N)CC1` [Form B], in series [1], the “form conversion during API process and DP processing timeframes” value is reported as “converts to Form A”. For the same compound, the “temperature at which the form is the more stable form” value in series [2] was not above 30 °C. In addition, the “time for conversion of most Form B crystals to Form A crystals” value in series [3] (80° C., slurry in aqueous SLS and PVP, after introduction of Form A crystal seeds) was not above 2 h. Moreover, the “Form A detected before seeding” value in series [3] (Form B slurry in aqueous SLS and PVP raised to 80° C., before Form A seeds) is given as “no Form A detected”.
